Source: PMC9318862, “Cytotoxic Effects on Breast Cancer Cell Lines of Chalcones Derived from a Natural Precursor and Their Molecular Docking Analysis” (Molecules, 2022)
Where two headings read alike, the source gives them in different places.

Experiments:
MCF-7 cells [1] = assay: Cell viability of MCF-7 cells after treatment at 10 and 100 µM (MTT cell proliferation assay, 24 h, normoxia); format: cell-based; conditions: Homo sapiens, mean ± SD; for viability at 10 µM: MCF7, 10 µM; for viability at 100 µM: MCF7, 100 µM
Procedure: (§1) The cytotoxic activity of all the synthesized chalcones was tested against breast cancer cell lines using an MTT cell proliferation assay. All compounds were tested in vitro at 10 and 100 µM using the cell viability assay in MCF-7 for 24 h in normoxia (Table 1). Firstly, the cytotoxic effect of the chalcone compounds modified in ring B and with an unsubstituted ring A was tested (compounds 3–8). […] Secondly, compounds with modifications in the A and B rings (9–13) were tested.
The cell culture methodology was used with modifications. Three human breast cancer cell lines were used for this study: MCF-7 (ATCC® HTB-22™), ZR-75-1 (ATCC® CRL-1500™), MDA-MB-231 (ATCC® HTB-26™), and the non-tumorigenic MCF-10F (ATCC® CRL-10318™) cell lines. Cells were cultured in specific media according to ATCC recommendations. The incubation condition was established at 37 °C, a complete humid atmosphere, 5% CO2 and 95% […]. […]

MCF-10F cells = assay: Cytotoxic assay, IC50 in non-tumorigenic MCF-10F cells; format: cell-based, human; conditions: MCF-10F non-tumorigenic cells, mean ± SD, read-out: IC50 Cell Lines MCF-10F
Procedure: (§2) The cell culture methodology was used with modifications. Three human breast cancer cell lines were used for this study: MCF-7 (ATCC® HTB-22™), ZR-75-1 (ATCC® CRL-1500™), MDA-MB-231 (ATCC® HTB-26™), and the non-tumorigenic MCF-10F (ATCC® CRL-10318™) cell lines. Cells were cultured in specific media according to ATCC recommendations. The incubation condition was established at 37 °C, a complete humid atmosphere, 5% CO2 and 95% O2.
(§3) The cytotoxic effect of the chalcone compounds was assessed in MCF-10F cells in a dose- and time-dependent manner. Cells (1 × 10^4 and 4 × 10^4) cultured under normoxic conditions were seeded in 24-well plates in quadruplicate and incubated for 4 days until 70% confluence. After this incubation period, cells were exposed to concentrations of the synthesized compounds dissolved in ethanol (50%) at concentrations ranging from 0 to 96.8 µg/mL (dissolved in 0.5% DMSO). Doxorubicin was used as the control drug, and for all data a p < 0.05 value was considered statistically significant. Cell viability was assessed using a neutral red uptake assay after 24 h of treatment.

MDA-MB-231 cells = assay: Cytotoxic assay, IC50 in MDA-MB-231 cells; format: cell-based; conditions: Homo sapiens, mean ± SD, read-out: IC50 Cell Lines MDA-MB-231
Procedure: as §1, §2, §3

ZR-75-1 cells = assay: Cytotoxic assay, IC50 in ZR-75-1 cells; format: cell-based; conditions: Homo sapiens, mean ± SD, read-out: IC50 Cell Lines ZR-75-1
MCF-7 cells [2] = assay: Cytotoxic assay, IC50 in MCF-7 cells; format: cell-based; conditions: Homo sapiens, MCF7, mean ± SD, read-out: IC50 Cell Lines MCF-7
MCF-7 cells [3] = test system: MCF-7 cells; parameters: method as in PMID 27814565; conditions: read-out: IC50 on the growth of the MCF-7 cells; cited from earlier work

## COc1cc(OC)c(OC)cc1/C=C/C(=O)c1ccc(O)c(CC=C(C)C)c1 [Compound 13]
MCF-7 cells [1]
  viability at 10 µM: 32.4 ± 4.5%
  viability at 100 µM: 3.1 ± 0.4%
MCF-10F cells; Homo sapiens, MCF-10F
  IC50: 95.1 ± 1.97 µM
MCF-10F cells
  IC50: 75.1 ± 12 µM
MDA-MB-231 cells
  IC50: 18.1 ± 1.65 µM
ZR-75-1 cells
  IC50: 8.75 ± 2.01 µM
MCF-7 cells [2]
  IC50: 3.3 ± 0.92 µM

## O=C(/C=C/c1ccccc1)c1ccccc1 [Compound 3]
MCF-7 cells [1]
  viability at 10 µM: 81.3 ± 9.4%
  viability at 100 µM: 65.2 ± 5.7%
MCF-10F cells; Homo sapiens, MCF-10F
  IC50: > 80 µM
MDA-MB-231 cells
  IC50: > 80 µM
ZR-75-1 cells
  IC50: > 80 µM
MCF-7 cells [2]
  IC50: > 80 µM

## COc1ccc(/C=C/C(=O)c2ccc(O)c(CC=C(C)C)c2)cc1 [Compound 10]
MCF-7 cells [1]
  viability at 10 µM: 73.7 ± 6.7%
  viability at 100 µM: 62.3 ± 7.6%
MCF-10F cells; Homo sapiens, MCF-10F
  IC50: > 80 µM
MDA-MB-231 cells
  IC50: 78 ± 4.34 µM
ZR-75-1 cells
  IC50: > 80 µM
MCF-7 cells [2]
  IC50: > 80 µM

## COc1cc(/C=C/C(=O)c2ccc(O)c(CC=C(C)C)c2)ccc1O [Compound 12, (E)-1-(4-hydroxy-3-(3-methylbut-2-en-1-yl)phenyl)-3-(4-hydroxy-3-methoxyphenyl)prop-2-en-1-one]
MCF-7 cells [1]
  viability at 10 µM: 10.3 ± 0.6%
  viability at 100 µM: 3.6 ± 0.9%
MCF-10F cells; Homo sapiens, MCF-10F
  IC50: 95.8 ± 1.52 µM
MCF-10F cells
  IC50: 75.8 ± 11.5 µM
MDA-MB-231 cells
  IC50: 6.12 ± 0.84 µM
ZR-75-1 cells
  IC50: 9.4 ± 1.74 µM
MCF-7 cells [2]
  IC50: 4.19 ± 1.04 µM

## CC(C)=CCc1cc(C(=O)/C=C/c2ccccc2)ccc1O [Compound 9]
MCF-7 cells [1]
  viability at 10 µM: 93.8 ± 7.9%
  viability at 100 µM: 82.5 ± 6.1%
MCF-10F cells; Homo sapiens, MCF-10F
  IC50: > 80 µM
MDA-MB-231 cells
  IC50: > 80 µM
ZR-75-1 cells
  IC50: > 80 µM
MCF-7 cells [2]
  IC50: > 80 µM

## COc1ccc(/C=C/C(=O)c2ccccc2)cc1 [Compound 4]
MCF-7 cells [1]
  viability at 10 µM: 74.5 ± 10.3%
  viability at 100 µM: 55.1 ± 5.1%
MCF-10F cells; Homo sapiens
  IC50: > 80 µM
MDA-MB-231 cells
  IC50: > 80 µM
ZR-75-1 cells
  IC50: > 80 µM
MCF-7 cells [2]
  IC50: > 80 µM

## COc1cc(/C=C/C(=O)c2ccccc2)ccc1O [Compound 6]
MCF-7 cells [1]
  viability at 10 µM: 47 ± 4.9%
  viability at 100 µM: 4.9 ± 0.6%
MCF-10F cells; Homo sapiens, MCF-10F
  IC50: 72.6 ± 10.3 µM
MDA-MB-231 cells
  IC50: 52 ± 4.53 µM
ZR-75-1 cells
  IC50: 43.2 ± 6.58 µM
MCF-7 cells [2]
  IC50: 21.6 ± 2.71 µM

## COc1cc(OC)c(OC)cc1/C=C/C(=O)c1ccccc1 [Compound 8]
MCF-7 cells [1]
  viability at 10 µM: 100 ± 12.6%
  viability at 100 µM: 94.4 ± 11.6%
MCF-10F cells; Homo sapiens, MCF-10F
  IC50: > 80 µM
MDA-MB-231 cells
  IC50: > 80 µM
ZR-75-1 cells
  IC50: > 80 µM
MCF-7 cells [2]
  IC50: > 80 µM

## CC(=O)c1ccc(O)c(CC=C(C)C)c1 [Compound 1b]
MCF-10F cells; Homo sapiens, MCF-10F
  IC50: 79.5 ± 9.9 µM
MDA-MB-231 cells
  IC50: 74 ± 8.72 µM
ZR-75-1 cells
  IC50: 61.6 ± 14.1 µM
MCF-7 cells [2]
  IC50: 79.4 ± 12.2 µM

## O=C(/C=C/c1ccc2c(c1)OCO2)c1ccccc1 [Compound 7]
MCF-7 cells [1]
  viability at 10 µM: 43.5 ± 3.4%
  viability at 100 µM: 38.6 ± 4.3%
MCF-10F cells; Homo sapiens, MCF-10F
  IC50: > 80 µM
MDA-MB-231 cells
  IC50: > 80 µM
ZR-75-1 cells
  IC50: > 80 µM
MCF-7 cells [2]
  IC50: > 80 µM

## COc1cccc2c1C(=O)c1c(O)c3c(c(O)c1C2=O)C[C@@](O)(C(=O)CO)C[C@@H]3O[C@H]1C[C@H](N)[C@H](O)[C@H](C)O1 [Doxorubicin, reference compound]
MCF-7 cells [1]
  viability at 10 µM: 49.3 ± 2.2%
  viability at 100 µM: 57.6 ± 2.9%
MCF-10F cells; Homo sapiens, MCF-10F
  IC50: 83.9 ± 8.99 µM
MDA-MB-231 cells
  IC50: 47.6 ± 5.74 µM
ZR-75-1 cells
  IC50: 79.8 ± 11 µM
MCF-7 cells [2]
  IC50: 111 ± 8.95 µM

## CN(C)c1ccc(/C=C/C(=O)c2ccccc2)cc1 [Compound 5]
MCF-7 cells [1]
  viability at 10 µM: 47.6 ± 3.2%
  viability at 100 µM: 52.4 ± 4.3%
MCF-10F cells; Homo sapiens, MCF-10F
  IC50: > 80 µM
MDA-MB-231 cells
  IC50: 79.8 ± 9.31 µM
ZR-75-1 cells
  IC50: 76.5 ± 12.6 µM
MCF-7 cells [2]
  IC50: > 80 µM

## CC(C)=CCc1cc(C(=O)/C=C/c2ccc(N(C)C)cc2)ccc1O [Compound 11]
MCF-7 cells [1]
  viability at 10 µM: 42 ± 4.3%
  viability at 100 µM: 42.4 ± 3.9%
MCF-10F cells; Homo sapiens, MCF-10F
  IC50: 78.4 ± 21.3 µM
MDA-MB-231 cells
  IC50: 72.3 ± 2.33 µM
ZR-75-1 cells
  IC50: 78.2 ± 6.87 µM
MCF-7 cells [2]
  IC50: > 80 µM

## C=C(C)C(O)Cc1c(O)ccc(C(=O)/C=C/c2ccc(O)c(CC=C(C)C)c2)c1O (stereo not shown) [Paratocarpin E]
MCF-7 cells [3]
  IC50: 19.6 µM
